Reference: patent publication US20170246190A1, “METHODS AND FORMULATION FOR IMPROVING ORAL AVAILABILITY OF CPT-11 WHILE REDUCING CPT-11 INDUCED GASTROINTESTINAL TOXICITY IN CANCER THERAPY” (Johnpro Biotech Inc., priority 2014, published 2017)
Structures can show the parent of a compound that is named as a salt.

Legend:
[1] = Oral availability of CPT-11: blood levels of CPT-11 and SN-38 by HPLC in mice bearing HT29 xenograft tumors; type: in vivo, NOD/SCID mice; settings: oral CPT-11 40 mg/Kg alone, 4 hrs after ingestion, FIG. 1A
Method: (§1) To inoculate tumor, HT29 cells (1×10^6 cells per injection) were injected subcutaneously to lab animals to generate s.c. tumors on day 1, which were allowed to grow to about 5 mm in diameter. Two sets of experiments were conducted.
In the second set of experiment, oral availability of CPT-11 was evaluated. The animals were randomly assigned to 3 groups, in which animals in group 1 (N=5) were on normal diet; animals in group 2 (N=5) received oral CPT-11 treatment (40 mg/Kg), and animals in group 3 (N=5) received a dose of dose of UDCA (20 mg/Kg) on day 1, an hour later, one dose of CPT-11 (40 mg/Kg) and one dose of silymarin (100 mg/Kg) were given. Blood samples were respectively taken at 1, 4, 8 hrs after the combined treatment of CPT-11 and on days 4, and 8; and the level of SN-38 (i.e., an active metabolite of CPT-11) was measured by HPLC. The body weight (BW) of each animal was measured daily.
The animals bearing xenografted s.c. colon tumors were randomly assigned into 3 groups, in which group 1 received no treatment, group 2 received one dose of oral treatment of CPT-11 (40 mg/Kg), and group 3 received UDCA (20 mg/Kg), CPT-11 (40 mg/Kg) and silymarin (100 mg/Kg) via oral ingestion in accordance with procedures described in the “Materials and methods” section. […]

NOD/SCID mice [2] = assay: Histological analysis (H&E) of colon tissues after oral CPT-11 treatment; type: in vivo; settings: oral CPT-11 50 mg/Kg, with or without silychristin 10 mg/Kg; FIG. 2
Method: as §1
(§2) In the first set of experiment, effects of silymarin on the reduction of CPT-11 induced bloody stool were investigated. […] At the end of the experiments, the animals were sacrificed and colon tissues from each animals were stained and used in histological analysis.

NOD/SCID mice [3] = assay: Bloody diarrhea evaluation by daily naked-eye observation; type: in vivo; settings: oral CPT-11 50 mg/Kg and/or silychristin 10 mg/Kg
Method: as §1, §2

E. Coli βG (eβG) = E. Coli βG (eβG) (Escherichia coli, UniProt P05804); assay: Beta-glucuronidase activity with fluorogenic substrate MUG, E. Coli enzyme; type: biochemical; settings: FIG. 3A
E. Coli βG (eβG), sequence (P05804 whole entry): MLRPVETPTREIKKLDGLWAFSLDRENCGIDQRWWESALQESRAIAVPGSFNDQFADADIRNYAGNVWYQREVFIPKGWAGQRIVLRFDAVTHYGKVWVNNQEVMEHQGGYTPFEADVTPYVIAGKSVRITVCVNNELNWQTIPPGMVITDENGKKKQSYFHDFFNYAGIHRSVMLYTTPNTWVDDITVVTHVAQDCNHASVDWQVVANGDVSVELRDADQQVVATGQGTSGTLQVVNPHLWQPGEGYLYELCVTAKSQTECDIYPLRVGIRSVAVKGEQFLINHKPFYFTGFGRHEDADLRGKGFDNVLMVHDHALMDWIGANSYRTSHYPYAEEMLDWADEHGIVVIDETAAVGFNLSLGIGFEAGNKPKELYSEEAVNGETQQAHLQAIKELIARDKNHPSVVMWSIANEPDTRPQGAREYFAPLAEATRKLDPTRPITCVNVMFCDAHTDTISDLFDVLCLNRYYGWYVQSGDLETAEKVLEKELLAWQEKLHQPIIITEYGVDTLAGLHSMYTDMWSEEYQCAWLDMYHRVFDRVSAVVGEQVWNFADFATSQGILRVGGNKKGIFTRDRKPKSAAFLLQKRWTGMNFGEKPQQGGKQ
Method: (§3) The βG activity in solution was determined with the fluorogenic substrate 4-methylumbellifery β-D-glucuronide (MUG), in which the non-fluorescent MUG would give rise to glucuronic acid and a highly fluorescent product, 4-methylumbelliferone (4-MU), at higher pH, after being converted by βG. The reaction can be quenched by the addition of a basic solution of sodium carbonate, and pH may be adjusted to quantitate the fluorescent signals. […] After 10 minutes, the assays were quenched at 15 second intervals by adding 1.9 ml of the carbonate stopping buffer. The samples were subject to fluorescence measurement, and the data was converted to nmol MUG hydrolyzed as an indication of GUS enzyme activity.
(§4) Silymarin is known to be a mixture of flavonolignans extracted from blessed milk thistle (Silybum marianum). […] Results are illustrated in FIGS. 3A and 3B.

human βG (hβG) = biological target: T1, human βG (hβG) (Homo sapiens, UniProt P08236); assay: Beta-glucuronidase activity with fluorogenic substrate MUG, human enzyme; type: biochemical; settings: 8 μM; FIG. 3B
T1 sequence (P08236 23-651): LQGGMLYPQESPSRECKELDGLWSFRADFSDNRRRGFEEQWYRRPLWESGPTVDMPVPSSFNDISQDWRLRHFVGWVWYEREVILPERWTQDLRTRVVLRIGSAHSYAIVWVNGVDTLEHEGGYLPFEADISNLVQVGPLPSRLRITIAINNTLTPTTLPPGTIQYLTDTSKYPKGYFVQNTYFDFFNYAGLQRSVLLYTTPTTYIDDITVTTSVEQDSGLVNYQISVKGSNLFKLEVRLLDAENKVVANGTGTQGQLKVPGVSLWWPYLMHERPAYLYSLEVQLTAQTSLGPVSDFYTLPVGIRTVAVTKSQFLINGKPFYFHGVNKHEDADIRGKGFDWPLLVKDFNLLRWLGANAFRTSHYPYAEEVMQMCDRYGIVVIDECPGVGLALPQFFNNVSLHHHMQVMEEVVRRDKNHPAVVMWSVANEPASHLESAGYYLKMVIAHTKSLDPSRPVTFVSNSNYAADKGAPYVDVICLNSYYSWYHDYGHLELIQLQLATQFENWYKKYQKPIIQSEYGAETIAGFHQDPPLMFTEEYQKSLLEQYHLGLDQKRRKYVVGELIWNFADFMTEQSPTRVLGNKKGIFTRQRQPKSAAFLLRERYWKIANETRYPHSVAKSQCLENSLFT
Method: as §3, §4

normal cells HEK-293 = assay: Cell viability assay (MTS) on normal cells; type: cell-based, human; settings: 100 μM; FIG. 4
Method: Cell line used in the present disclosure were human colon carcinoma cell line HT29, and human embryonic kidney cell line HEK-293. HT29 cells were cultured and maintained in Dulbecco's modified Eagle media (DMEM) supplemented with 10% heat inactivated fetal bovine serum (FBS), 50 units/mL penicillin G, 50 μg/mL streptomycin (pH 7.4), while HEK-293 cells were cultured in complete SFMII growth medium supplemented with 4mM L-glutamine. Both cell lines were maintained in humidified environment comprising 5% CO2/95% air at 37° C.
Cell were cultured at a density of 1.0×10^5 cells/well in 96-well round-bottom plates (Falcon, UK) containing 200 μL of culturing medium. Cells were maintained for two days at 37° C. in a humidified, 5% CO2 atmosphere. The proliferation rate of the cells was determined by MTS assay (CellTiter 96 aqueous one-solution cell proliferation assay; Promega, Wis., USA). Forty microliters of CellTiter 96 aqueous one-solution were added to each well. After incubation for 4hrs, the UV absorbance of the solution was measured at a wavelength of 490 nm. All MTS assays were performed in triplicate.

Row | Structure (SMILES) | blood level of CPT-11 [1] | colon tissue damage (morphology and integrity of epithelial cells), H&E histology (NOD/SCID mice [2]) | number of animals that exhibited bloody stool / bloody diarrhea (NOD/SCID mice [3]) | inhibition of eβG activity (E. Coli βG (eβG); 8 μM) [%] | eβG activity (E. Coli βG (eβG); 40 μM) | effect on the activity of hβG (human βG (hβG)) | effect on normal cells' activities (viability of HEK-293) (normal cells HEK-293)
1 | CCc1c2c(nc3ccc(OC(=O)N4CCC(N5CCCCC5)CC4)cc13)-c1cc3c(c(=O)n1C2)COC(=O)[C@]3(O)CC [CPT-11, Irinotecan hydrochloride] | undetectable level | severe damage | 4 animals | – | – | – | –
2 | COc1cc([C@@H]2Oc3c(O)cc([C@H]4Oc5cc(O)cc(O)c5C(=O)[C@@H]4O)cc3[C@H]2CO)ccc1O [silychristin] | – | – | none | ~80 | negligible level | without affecting | did not adversely affect
